This note sets out measurements from patent publication US20230321171A1, “ANTI-COCCIDIAL COMPOSITION COMPRISING MANGOSTEEN AND USES THEREOF” (CJ CHEILJEDANG CORPORATION, priority 2020, published 2023).

A value given as a limit tells only on which side of the number the result lay.

The subject of series [1] is Eimeria tenella. The series is described as follows: Protozoan (sporozoite) direct killing ability, Eimeria tenella. Format: cell-based. The settings on record: Table 15, method similar to Example 2-1.
The test system of series [2] is Eimeria tenella. The description is as above. It is filed as cell-based. The settings on record: Table 12 comparison with individual components. Here is the method: In the present example, protozoan (sporozoite) direct killing ability evaluation was conducted against 3 representative Eimeria kinds known to be infected in most farms (E. tenella, E. acervulina, E. maxima).
A certain amount of oocysts of each protozoan was put in a tube containing glass beads and pulverized, and then to remove the crushed oocyst cell wall and other debris, internal sporocysts were purified using the percoll density gradient, and washed with PBS solution. A reagent comprising sodium taurocholic acid (Sigma aldrich, USA) and trypsin (Gibco, USA), respectively, was treated to sporocysts of Eimeria tenella, Eimeria acervulina and Eimeria maxima for excystation and they were incubated, and then they were washed with PBS solution once and protozoa were obtained.
After reacting the mangosteen pericarp extract, epicatechin, alpha-mangostin, xanthone and anticoccidial agents, salinomycin and diclazuril (hereinafter, material) with 3 kinds of Eimeria protozoa at various concentrations of 1 to 500 ppm, respectively, only alive protozoa (sporozoites) were counted through microscopic observation. Then, the death rate (%) of the protozoa when each material was treated compared to the PBS-treated negative control group was calculated and shown in Table 8 to Table 10 and Table 12, respectively, and the minimum concentration which directly killed the protozoa by 100% was shown in Table 11 below.

Series [3] deals with MDBK(Madin-Darby Bovine Kidney Epithelial Cells). The series is described as follows: Cytotoxicity, MTS analysis, MDBK. The note with it: 3.1~500 ppm/well, 14 hours + 2 hours MTS, vs 5% DMSO treatment group. The text has this:
(§1) In the present example, using MTS analysis method (3-(4,5-[…])-5-(3-carboxymethoxyphenyl)-2-(4-sulfophenyl)-2H-tetrazolium, promega, USA), an effect on survival of cells of the mangosteen extract was investigated.
(§2) The cell lines utilized in cytotoxicity evaluation were (1) MDBK(Madin-Darby Bovine Kidney Epithelial Cells) and (2) RAW264.7(Mouse macrophage cell), and all of them were purchased from ATCC and used.
(§3) Each cell was aliquoted at a concentration of 1×10^5 cell/well in a 96-well cell culture plate, and cultured at 37° C. for 24 hours, and then each material (mangosteen extract, xanthone, alpha-mangostin and epicatechin) was treated by concentration (3.1˜500 ppm/well) and cultured at a temperature of 37° C.

For series [4], the system named is RAW264.7(Mouse macrophage cell). The series is described as follows: Cytotoxicity, MTS analysis, RAW264.7. The note with it: 3.1~500 ppm/well, 14 hours + 2 hours MTS, vs 5% DMSO treatment group.
Excerpt: as §1, §2, §3

Regarding `COc1c(O)cc2oc3cc(O)c(CC=C(C)C)c(O)c3c(=O)c2c1CC=C(C)C` [Alpha-mangostin, alpha-mangostin], the “Minimum concentrataion of killing protozoa 100% (ppm)” value in the series with Eimeria tenella [1] is listed as not below 31.3 ppm. The results for the “Eimeria tenella protozoal death rate” value with Eimeria tenella [2] (3.9 ppm), with Eimeria tenella [2] (7.8 ppm) and with Eimeria tenella [2] (15.6 ppm) were 23.3%, 50% and 93.3%, respectively. The “Minimum concentrataion of cytotoxicity at which cells of 50% or more survive (ppm)” value in series [3] was not below 7.8 ppm; in series [4], not below 15.6 ppm.
